Our source for the IC50 values is patent publication US20240408216A1, “PROTEIN INHIBITOR OR DEGRADING AGENT, PHARMACEUTICAL COMPOSITION CONTAINING SAME AND PHARMACEUTICAL USE” (JING MEDICINE TECHNOLOGY (SHANGHAI) LTD., priority 2021, published 2024).

Structures are written as SMILES.

In general, IC50 refers to the concentration that inhibits the measured activity by half.

T1 sequence (P00533 with tags, fused parts or gaps DEL746-750/C797S, form open): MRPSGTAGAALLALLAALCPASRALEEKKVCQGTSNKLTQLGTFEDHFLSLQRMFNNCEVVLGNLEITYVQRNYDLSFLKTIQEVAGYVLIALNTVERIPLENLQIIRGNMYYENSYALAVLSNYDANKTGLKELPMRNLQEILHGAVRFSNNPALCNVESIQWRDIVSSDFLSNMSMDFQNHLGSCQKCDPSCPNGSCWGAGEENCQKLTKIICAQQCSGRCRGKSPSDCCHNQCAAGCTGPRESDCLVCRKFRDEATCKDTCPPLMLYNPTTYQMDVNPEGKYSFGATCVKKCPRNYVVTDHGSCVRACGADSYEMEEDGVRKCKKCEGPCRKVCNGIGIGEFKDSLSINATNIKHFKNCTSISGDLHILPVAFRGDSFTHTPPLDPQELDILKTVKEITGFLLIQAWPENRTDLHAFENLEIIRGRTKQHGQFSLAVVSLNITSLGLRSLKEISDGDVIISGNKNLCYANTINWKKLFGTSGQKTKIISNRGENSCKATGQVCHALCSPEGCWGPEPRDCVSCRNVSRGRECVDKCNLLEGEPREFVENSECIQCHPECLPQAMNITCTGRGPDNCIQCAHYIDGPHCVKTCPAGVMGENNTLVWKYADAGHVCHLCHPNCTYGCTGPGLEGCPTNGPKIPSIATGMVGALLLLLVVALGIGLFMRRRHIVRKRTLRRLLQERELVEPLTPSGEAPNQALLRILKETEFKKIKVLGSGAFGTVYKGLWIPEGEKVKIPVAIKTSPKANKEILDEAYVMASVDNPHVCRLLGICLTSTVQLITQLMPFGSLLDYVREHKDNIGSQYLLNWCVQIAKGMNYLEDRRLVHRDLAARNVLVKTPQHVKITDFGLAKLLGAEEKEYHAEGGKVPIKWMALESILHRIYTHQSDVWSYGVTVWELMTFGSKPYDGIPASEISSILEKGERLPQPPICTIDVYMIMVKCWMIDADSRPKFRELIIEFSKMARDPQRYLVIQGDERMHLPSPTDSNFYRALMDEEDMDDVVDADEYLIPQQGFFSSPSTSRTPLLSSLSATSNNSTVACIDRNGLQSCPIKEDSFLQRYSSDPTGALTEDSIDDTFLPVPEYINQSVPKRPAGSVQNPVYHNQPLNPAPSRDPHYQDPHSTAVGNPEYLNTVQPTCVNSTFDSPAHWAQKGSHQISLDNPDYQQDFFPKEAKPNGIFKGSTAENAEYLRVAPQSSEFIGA

The first experiment deals with BaF3 (EGFR L858R/T790M/C797S). Nature of the experiment: Cell proliferation IC50 assay (Cell Titer GLO), BaF3 LTC cells. It counts as cell-based. The settings on record: Mus musculus, Ba/F3 EGFR, Table 6, 72 h. A digest of the protocol: (§1)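 Cells plated at 2000-4000 cells/well and treated the next day with serially diluted compound for 72 h at 37° C, 5% CO2. Viability read by CellTiter-Glo luminescence, normalised to DMSO and cell-free blank controls; IC50 fitted from growth inhibition curves.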
(In general: In ATP-based viability assays light output follows the ATP content of the culture.)
`CCc1cc(Nc2ncc(Cl)c(Nc3ccccc3P(C)(C)=O)n2)c(OC)cc1N1CCC(N2CCC3(CCC(Cc4cccc5c4CN(C4CCC(=O)NC4=O)C5=O)CC3)C2)CC1` (centres unmarked) [Example E45] registered an IC50 of 21.2 nM.
Take `COc1cc(N2CCC(N3CCN(CCC#Cc4cccc5c4CN(C4CCC(=O)NC4=O)C5=O)CC3)CC2)c(C)cc1Nc1ncc(Br)c(Nc2ccc3c(c2P(C)(C)=O)OCCO3)n1` (centres unmarked) [Example E43]: the IC50 is 15.8 nM.
The molecule `CCc1cc(Nc2ncc(Cl)c(Nc3ccccc3P(C)(C)=O)n2)c(OC)cc1N1CCC(N2CCC3(CCC(=Cc4cccc5c4CN(C4CCC(=O)NC4=O)C5=O)CC3)C2)CC1` (centres unmarked) [Example E40] showed an IC50 of 17.5 nM.
Molecule `COc1cc(N2CCC(N3CCN(CCC#Cc4cccc5c4CN(C4CCC(=O)NC4=O)C5=O)CC3)CC2)ncc1Nc1ncc(Cl)c(Nc2ccccc2P(C)(C)=O)n1` (centres unmarked) [Example E71] gave an IC50 of 62.3 nM.
The molecule `COc1cc(N2CCC(N3CCN(CCC#Cc4cccc5c4CN(C4CCC(=O)NC4=O)C5=O)CC3)CC2)c(C)cc1Nc1ncc(Br)c(Nc2ccccc2P(C)(C)=O)n1` (centres unmarked) [Example E7] registered an IC50 of 42.7 nM.
Same read-out and setting: with `CCc1cc(Nc2ncc(Br)c(Nc3ccc4c(c3P(C)(C)=O)OCCO4)n2)c(OC)cc1N1CCC(N2CCN(CCC#Cc3cccc4c3CN(C3CCC(=O)NC3=O)C4=O)CC2)CC1` (centres unmarked) [Example E22] the figure was 34.1 nM.

A further experiment addresses T1, BaF3 (EGFR Del19/C797S) (Homo sapiens, UniProt P00533, C797S, cells depend on it, form not given).
T1 construct: BaF3 (EGFR Del19/C797S)|DC|RPMI1640 + 10% FBS
The experiment can be described thus: Cell proliferation IC50 assay (Cell Titer GLO), BaF3 DC cells. It counts as cell-based, mouse. The settings on record: Table 6, 72 h. A digest of the protocol: as §1
On to `CCc1cc(Nc2ncc(Cl)c(Nc3ccccc3P(C)(C)=O)n2)c(OC)cc1N1CCC(N2CCC3(CCC(Cc4cccc5c4CN(C4CCC(=O)NC4=O)C5=O)CC3)C2)CC1` (centres unmarked) [Example E45], for which the IC50 came out at 8.5 nM.
The molecule `COc1cc(N2CCC(N3CCN(CCC#Cc4cccc5c4CN(C4CCC(=O)NC4=O)C5=O)CC3)CC2)c(C)cc1Nc1ncc(Br)c(Nc2ccc3c(c2P(C)(C)=O)OCCO3)n1` (centres unmarked) [Example E43] displayed an IC50 of 6.6 nM.
The molecule `CCc1cc(Nc2ncc(Cl)c(Nc3ccccc3P(C)(C)=O)n2)c(OC)cc1N1CCC(N2CCC3(CCC(=Cc4cccc5c4CN(C4CCC(=O)NC4=O)C5=O)CC3)C2)CC1` (centres unmarked) [Example E40] came in with an IC50 of 4.9 nM.
In the case of `COc1cc(N2CCC(N3CCN(CCC#Cc4cccc5c4CN(C4CCC(=O)NC4=O)C5=O)CC3)CC2)ncc1Nc1ncc(Cl)c(Nc2ccccc2P(C)(C)=O)n1` (centres unmarked) [Example E71], the IC50 stood at 54.4 nM.
On the same count and under the same terms, with `COc1cc(N2CCC(N3CCN(CCC#Cc4cccc5c4CN(C4CCC(=O)NC4=O)C5=O)CC3)CC2)c(C)cc1Nc1ncc(Br)c(Nc2ccccc2P(C)(C)=O)n1` (centres unmarked) [Example E7] the figure was 14.9 nM.
`CCc1cc(Nc2ncc(Br)c(Nc3ccc4c(c3P(C)(C)=O)OCCO4)n2)c(OC)cc1N1CCC(N2CCN(CCC#Cc3cccc4c3CN(C3CCC(=O)NC3=O)C4=O)CC2)CC1` (centres unmarked) [Example E22] showed a 50% inhibitory concentration (IC50) of 4.1 nM.

The subject of the next experiment is BaF3 (EGFR WT). The experiment can be described thus: Cell proliferation IC50 assay (Cell Titer GLO), BaF3 WT cells. Type of experiment: cell-based. The settings on record: Mus musculus, Ba/F3 EGFR, Table 6, 10 ng/ml EGF, 72 h. An outline of the steps:
as §1
For the molecule `CCc1cc(Nc2ncc(Cl)c(Nc3ccccc3P(C)(C)=O)n2)c(OC)cc1N1CCC(N2CCC3(CCC(Cc4cccc5c4CN(C4CCC(=O)NC4=O)C5=O)CC3)C2)CC1` (centres unmarked) [Example E45], the IC50 turned out to be 585 nM.
The same measure, in the same setting: under `COc1cc(N2CCC(N3CCN(CCC#Cc4cccc5c4CN(C4CCC(=O)NC4=O)C5=O)CC3)CC2)c(C)cc1Nc1ncc(Br)c(Nc2ccc3c(c2P(C)(C)=O)OCCO3)n1` (centres unmarked) [Example E43] stands 330 nM; under `CCc1cc(Nc2ncc(Cl)c(Nc3ccccc3P(C)(C)=O)n2)c(OC)cc1N1CCC(N2CCC3(CCC(=Cc4cccc5c4CN(C4CCC(=O)NC4=O)C5=O)CC3)C2)CC1` (centres unmarked) [Example E40], 260 nM; under `COc1cc(N2CCC(N3CCN(CCC#Cc4cccc5c4CN(C4CCC(=O)NC4=O)C5=O)CC3)CC2)ncc1Nc1ncc(Cl)c(Nc2ccccc2P(C)(C)=O)n1` (centres unmarked) [Example E71], 1550 nM.
The same measure, in the same setting: with `COc1cc(N2CCC(N3CCN(CCC#Cc4cccc5c4CN(C4CCC(=O)NC4=O)C5=O)CC3)CC2)c(C)cc1Nc1ncc(Br)c(Nc2ccccc2P(C)(C)=O)n1` (centres unmarked) [Example E7] the figure was 134 nM; with `CCc1cc(Nc2ncc(Br)c(Nc3ccc4c(c3P(C)(C)=O)OCCO4)n2)c(OC)cc1N1CCC(N2CCN(CCC#Cc3cccc4c3CN(C3CCC(=O)NC3=O)C4=O)CC2)CC1` (centres unmarked) [Example E22], 275 nM.

A further experiment concerns BaF3 patent. Nature of the experiment: Cell proliferation IC50 assay (Cell Titer GLO), BaF3 parental cells. Type of experiment: cell-based. The settings on record: Mus musculus, Table 6, 10 ng/ml mIL3, 72 h. The procedure: IC50 of compounds in the present invention was determined by Cell Titer GLO reagent from Promega. The procedures are as follows:
Tumor cells were cultured in specified medium in an incubator at 37° C. and 5% CO2. The cells were passaged periodically. Cells at the logarithmic growth phase were collected for plating at a density of 2000-4000 cells/well. The next day, the compounds of the present invention were serially diluted and added to the cells, with DMSO being the negative control and the culture media without cells being the blank control. The plate was incubated in the incubator for 72 h. The cell viability assay was performed by adding the detection reagents to the cell culture media according to Cell Titer GLO reagent instructions and detecting luminescent signals on an EnVision microplate reader (PerkinElmer).
Inhibition of cell growth by the compounds of the present invention was plotted by Prism Graphpad software for statistically calculating the IC50 of the compound of the present invention.
For the molecule `CCc1cc(Nc2ncc(Cl)c(Nc3ccccc3P(C)(C)=O)n2)c(OC)cc1N1CCC(N2CCC3(CCC(Cc4cccc5c4CN(C4CCC(=O)NC4=O)C5=O)CC3)C2)CC1` (centres unmarked) [Example E45], the IC50 came out at 221 nM.
Still for that read-out and setting: with `COc1cc(N2CCC(N3CCN(CCC#Cc4cccc5c4CN(C4CCC(=O)NC4=O)C5=O)CC3)CC2)c(C)cc1Nc1ncc(Br)c(Nc2ccc3c(c2P(C)(C)=O)OCCO3)n1` (centres unmarked) [Example E43] the figure was 122 nM.
Still for that read-out and setting: with `CCc1cc(Nc2ncc(Cl)c(Nc3ccccc3P(C)(C)=O)n2)c(OC)cc1N1CCC(N2CCC3(CCC(=Cc4cccc5c4CN(C4CCC(=O)NC4=O)C5=O)CC3)C2)CC1` (centres unmarked) [Example E40] the figure was 131 nM; with `COc1cc(N2CCC(N3CCN(CCC#Cc4cccc5c4CN(C4CCC(=O)NC4=O)C5=O)CC3)CC2)ncc1Nc1ncc(Cl)c(Nc2ccccc2P(C)(C)=O)n1` (centres unmarked) [Example E71], 719 nM; with `COc1cc(N2CCC(N3CCN(CCC#Cc4cccc5c4CN(C4CCC(=O)NC4=O)C5=O)CC3)CC2)c(C)cc1Nc1ncc(Br)c(Nc2ccccc2P(C)(C)=O)n1` (centres unmarked) [Example E7], 271 nM.
On the same count and under the same terms, under `CCc1cc(Nc2ncc(Br)c(Nc3ccc4c(c3P(C)(C)=O)OCCO4)n2)c(OC)cc1N1CCC(N2CCN(CCC#Cc3cccc4c3CN(C3CCC(=O)NC3=O)C4=O)CC2)CC1` (centres unmarked) [Example E22] stands 385 nM.

The subject of the next experiment is A431. Nature of the experiment: Cell proliferation IC50 assay (Cell Titer GLO), A431 cells. The settings on record: Homo sapiens, A-431; Table 6; A431, 72 h; read-out: A431 IC50. Type of experiment: cell-based. An outline of the steps:
as §1
Regarding `CCc1cc(Nc2ncc(Cl)c(Nc3ccccc3P(C)(C)=O)n2)c(OC)cc1N1CCC(N2CCC3(CCC(Cc4cccc5c4CN(C4CCC(=O)NC4=O)C5=O)CC3)C2)CC1` (centres unmarked) [Example E45], the IC50 came to 1240 nM.
In the case of `COc1cc(N2CCC(N3CCN(CCC#Cc4cccc5c4CN(C4CCC(=O)NC4=O)C5=O)CC3)CC2)c(C)cc1Nc1ncc(Br)c(Nc2ccc3c(c2P(C)(C)=O)OCCO3)n1` (centres unmarked) [Example E43], the concentration for half-maximal inhibition (IC50) was 1060 nM.
`CCc1cc(Nc2ncc(Cl)c(Nc3ccccc3P(C)(C)=O)n2)c(OC)cc1N1CCC(N2CCC3(CCC(=Cc4cccc5c4CN(C4CCC(=O)NC4=O)C5=O)CC3)C2)CC1` (centres unmarked) [Example E40]: the half-inhibitory concentration (IC50) is 1210 nM.
On the same count and under the same terms, with `COc1cc(N2CCC(N3CCN(CCC#Cc4cccc5c4CN(C4CCC(=O)NC4=O)C5=O)CC3)CC2)ncc1Nc1ncc(Cl)c(Nc2ccccc2P(C)(C)=O)n1` (centres unmarked) [Example E71] the figure was above 4000 nM.
For `CCc1cc(Nc2ncc(Br)c(Nc3ccc4c(c3P(C)(C)=O)OCCO4)n2)c(OC)cc1N1CCC(N2CCN(CCC#Cc3cccc4c3CN(C3CCC(=O)NC3=O)C4=O)CC2)CC1` (centres unmarked) [Example E22], the IC50 is 1050 nM.
